Test results published in US20260373165A1, “PHARMACEUTICAL COMBINATIONS AND COMPOSITIONS, AND METHODS OF USE THEREOF” (SHENZHEN HIGHTIDE BIOPHARMACEUTICAL LTD., priority 2022, published 2026).

What was measured:
Type in all cases: in vivo, mouse (C57BL/6J male, 60% HFD DIO)
[1] = Example 1: body fat mass by MRI after 25 days; conditions: for body fat mass and body fat ratio (in words): after 25 days, relative to control group G2; for Body weight / Body fat ratio / Fat (body fat mass): mean, HTD1801 200 mpk, empagliflozin 10 mpk in last 2 weeks (300/15 mpk before), semaglutide 10 nmol/kg s.c. Q3D; for Body weight: after 25 days of administration (Table 5); for Body fat ratio / Fat (body fat mass): after 25 days of administration
Source text: (§1) After 5-week-old C57BL/6J male mice were acclimatized for 1 week, the weight of each mouse was weighed, and the mice were randomly divided into a control group and a model group by taking the weight as a main index, where 12 mice in the control group were fed with common feed (CD), and the mice in the remaining model group were fed with 60% high-fat feed (60% HFD) for 10-12 weeks to construct a DIO obesity model, with the average body weight being not less than 40 g. The mice fed with 60% HFD were grabbed and acclimatized with a solvent for 3 days, where the acclimatization with a solvent was performed by oral gavage of 0.5% CMC-Na, twice daily.
(§2) The food intake, the body weight, the body fat ratio, and the insulin level of the mice were respectively measured, followed by fasting blood glucose level, and the mice were randomly grouped according to Table 3 by taking the body weight as an index, and the remaining ungrouped mice were euthanized. After grouping, each group of mice was administered according to Table 3, the day of administration was defined as DO, and the administration volume of each drug was determined based on the results obtained by the calculation of 5 μL/g× mouse body weight (g).
(§3) For the combined administration group, the total administration volume was the sum of the administration volumes of two single drugs, and the administration sequence and the administration time were kept consistent at each administration. The mice were continuously fed with high-fat feed during the administration period until the administration was finished. During administration, 2 food intakes were measured per week (difference in feed weights at an interval of 24 h was measured); each group of mice was weighed once daily; postprandial blood glucose levels were measured weekly; blood was collected from the tail tip on day 6 and day 20, respectively, so as to measure fasting blood glucose levels once (blood was collected after fasting from 8:00 am to […]); on day 25 of administration, the body fat ratio and the lean mass of each group of mice were measured by MRI (the measurement period was kept consistent with that before grouping); after 4 weeks of administration intervention (day 28), each group of mice was fasted for 6 h and subjected to OGTT (0 min, 15 min, 30 min, 60 min, 90 min, 120 min) to detect their blood glucose levels, and meanwhile subjected to blood sampling via submaxillary vein (0 min, 15 min, 30 min, about 30 μL of blood sampled each time), and then the blood plasma was separated for detecting the insulin level by ELISA, where the separated blood plasma was more than 10 μL; the next day (D29) at the end of administration was set as the test endpoint, and the mice were fasted for 6 h in the morning and subjected to fasting blood glucose level measurement; subsequently, the mice were euthanized with CO2, blood was collected from the heart of each mouse for analysis, and each group of mice was dissected; the liver and subcutaneous, epididymal and mesenteric fat was collected, photographed and weighed, respectively.
After 25 days of administration, the body weight, the body fat mass and the body fat ratio of each animal in groups G1 to G6 were measured and averaged for each group, and the results are shown in Table 5 below, FIG. 4 and FIG. 5.

[2] = Example 1: liver, abdominal and subcutaneous fat weight after 28 days; conditions: mean, HTD1801 200 mpk, empagliflozin 10 mpk in last 2 weeks (300/15 mpk before)
Source text: as §1, §2, §3
After 28 days of administration, the mice were euthanized with CO2 the next day, and the mice of groups G1 to G5 were dissected, and liver and abdominal fat (including epididymis and mesentery), and subcutaneous fat were collected, photographed and weighed, respectively, and the results are shown in Table 6 below, FIG. 6, FIG. 7, and FIG. 8.

[3] = Example 1: lean mass by MRI after 25 days; conditions: for lean mass (in words): after 25 days, relative to model control group G2; for Body weight / Lean (lean mass) / Lean ratio: mean, HTD1801 200 mpk, empagliflozin 10 mpk in last 2 weeks (300/15 mpk before); for Body weight: after 25 days of administration (Table 7); for Lean (lean mass) / Lean ratio: after 25 days of administration
Source text: as §1, §2, §3
After 25 days of administration, the body weight, the Lean weight and the lean ratio of each animal in groups G1 to G5 were measured and averaged for each group, and the results are shown in Table 7 below, FIG. 9 and FIG. 10.

[4] = Example 1: fasting blood glucose level; conditions: semaglutide 10 nmol/kg s.c. Q3D
Source text: as §1, §2
For the combined administration group, the total administration volume was the sum of the administration volumes of two single drugs, and the administration sequence and the administration time were kept consistent at each administration. The mice were continuously fed with high-fat feed during the administration period until the administration was finished. […]
After 20 days of administration, fasting blood glucose level results were measured for each group of animals and are shown in Table 8 below and FIG. 11.

[5] = Example 1: food intake within 24 h; conditions: during administration period, vs model control group
Source text: as §1
as §2, with “(g). […]” for “(g).”

[6] = day 6, HTD1801 300 mpk, empagliflozin 15 mpk gavage QD
[7] = day 20, HTD1801 200 mpk, empagliflozin 10 mpk (reduced after week 2)

| SMILES | body fat mass and body fat ratio (in words) [1] | Body weight [1] | Body fat ratio [1] | Fat (body fat mass) [1] | Epididymal fat weight [2] | Liver weight [2] | Mesenteric fat weight [2] | Subcutaneous fat weight [2] | lean mass (in words) [3] | Body weight [3] | Lean (lean mass) [3] | Lean ratio [3] | Mean fasting blood glucose level [4, 6] | Mean fasting blood glucose level [4, 7] | food intake within 24 h (in words) [5] |
| --- | --- | --- | --- | --- | --- | --- | --- | --- | --- | --- | --- | --- | --- | --- | --- |
| OC[C@H]1O[C@@H](c2ccc(Cl)c(Cc3ccc(O[C@H]4CCOC4)cc3)c2)[C@H](O)[C@@H](O)[C@@H]1O [Empagliflozin, empagliflozin] | increased | 47.53 g | 49.13% | 23.36 g | 2.82 g | 1.34 g | 1.20 g | 3.02 g | decreased | 47.53 g | 5.17 g | 10.92% | 7.8 mmol/L | 7.9 mmol/L | comparable to that of the model control group |
| COc1ccc2cc3[n+](cc2c1OC)CCc1cc2c(cc1-3)OCO2.C[C@H](CCC(=O)[O-])[C@H]1CC[C@H]2[C@@H]3[C@@H](O)C[C@@H]4C[C@H](O)CC[C@]4(C)[C@H]3CC[C@]12C [HTD1801, berberine ursodeoxycholate] | decreased | 40.10 g | 40.12% | 16.23 g | 2.31 g | 0.98 g | 0.78 g | 2.32 g | increased | 40.10 g | 7.50 g | 19.02% | 7.9 mmol/L | 8.4 mmol/L | lower than the food intake for the model control group |
